How the values were obtained:
[1] = system: PRP genes (Prb1, Prh1, Prp2, and Prpmp5) (the parotid glands); conditions: mice on diet with high phosphorus content 4 weeks; 10 mg/kg intraperitoneally weekly, five times; vs physiological saline; n=5 to 6
Procedure: After the wet weights of the collected organs and tissue were measured, the organs and tissue were rapidly frozen in liquid nitrogen and stored at −80° C.

FGF23 in plasma = assay: Measurement of concentration of FGF23 in plasma by ELISA method in HP model mice; type: in vivo, mice (C57BL/6N); conditions: mice on diet with high phosphorus content 4 weeks; 10 mg/kg intraperitoneally weekly, five times; vs physiological saline; p=0.049
Procedure: The concentration of FGF23 in plasma was measured using an ELISA kit sold by KAINOS Laboratories, Inc. (TCY4000). A plasma sample cryopreserved in a freezer was thawed on ice, and the sample undiluted or the sample diluted 5-fold with standard solution 1 (FGF-23 concentration, 0 pg/ml) supplied with the kit was used for measurement.
50 μl of the diluted sample or a sample for a calibration curve was added to each well of an ELISA plate supplied with the kit. The plate was sealed, followed by stirring and incubating at room temperature for 2 hours. After the two hours, the sample in each well was aspirated and discarded. 300 μl of a wash solution supplied with the kit was then added to each well, and the wash solution was removed. This operation was performed four times. After the wash solution was thoroughly removed, 100 μl of an enzyme-labeled antibody solution (FGF-23 Conjugate) supplied with the kit was added to each well, and the plate was sealed, followed by stirring and incubating at room temperature for 1 hour. After the 1 hour, the sample in each well was aspirated and discarded. […] Absorbance at 450 nm was then measured with an absorbance microplate reader (Multiskan GO, Thermo Fisher Scientific Inc.). The concentration of FGF23 in plasma was calculated by making a calibration curve from the measurement result of recombinant FGF23 supplied with the kit.

FGF23 gene (the skull) = assay: qRT-PCR of FGF23 in the skull of HP model mice given soluble human Oscar-Fc fusion protein; type: in vivo, mice (C57BL/6N); conditions: mice on diet with high phosphorus content (2% inorganic phosphorus) 4 weeks; 10 mg/kg intraperitoneally weekly, five times; vs physiological saline; normalized to Maea; p=0.026; n=5 to 6
Source text: (§1) Subsequently, the mixture was vortexed vigorously for 15 seconds.

Fgg gene (kidneys) = assay: qRT-PCR of Fgg gene (fibrinogen) in the kidneys of HP model mice given soluble Oscar-Fc fusion protein; type: in vivo, mice (C57BL/6N); conditions: HP4W_sOscar vs HP4W_NS; diet with high phosphorus content 4 weeks; p=0.00071; n=5 to 6
Source text: as §1
To evaluate the effect of the soluble Oscar-Fc fusion protein on kidney function, the expression of a kidney function marker was confirmed in the kidneys of HP4W_NS, HP4W_sOscar, and LP4W of Reference Example 2.

soluble human Oscar-Fc fusion protein: Soluble human Oscar-Fc fusion protein of SEQ ID NO: 2 (human Oscar sequence, hinge, human IgG1); inhibits ligand binding to Oscar
expression of PRP genes (Prb1, Prh1, Prp2, and Prpmp5) in the parotid glands (qRT-PCR) [1]: suppressed | increase in the concentration of FGF23 in plasma (ELISA) (FGF23 in plasma): statistically significantly suppressed | expression of FGF23 in the skull (qRT-PCR) (FGF23 gene (the skull)): suppressed | expression of the Fgg gene in the kidneys (qRT-PCR) (Fgg gene (kidneys)): significantly suppressed

— US12091701B2, “Screening method for candidate substances for active component to prevent or treat at least one disease selected from the group consisting of renal hypofunction, chronic kidney disease and kidney failure” (KARYDO THERAPEUTIX, INC., priority 2016, dated 2024)
